Counter-ions that a name gives are not always drawn.
Tests used:
[1] = Kiso to Rinsho, (1990), Vol. 24, No. 14, 7-17; cited from earlier work
[2] = tested on: human colon cancer cell line (KM20C); experiment: Survival of mice intraperitoneally transplanted with KM20C (Reference Example); type: in vivo, BALB/cA Jcl-nu mice; conditions: i.v., weekly; for ILS (increase in life span): 6 weeks from Day 3; for Survival time (day) Mean ± SD: 6 weeks from Day 3, n=10
Method: Cultured cells (1×10^7 cells/mouse) of human colon cancer cell line (KM20C) were intraperitoneally transplanted into 5-6 weeks old BALB/cA Jcl-nu mice after birth, and the mice were assigned to each group so that the mean body weight of each group became equal. The date on which such grouping (n=10) was performed was taken as Day 0.
[…]. Starting the dug administration from Day 3, a 5-days' daily oral administration of the FTD/TPI combination drug with 2-days' rest was performed for 6 weeks, and CPT-11 was administered once in a week from the tail vein for 6 weeks.
As an index of the antitumor effect, the number of survivors of each group of mice and the survival time of each group was compared.

[3] = tested on: human gastric cancer cell line (SC-2); experiment: Combined administration test, SC-2 tumor (Example 2); conditions: CPT-11 100 mg/kg/day, Day 1, 15, i.v., q.d.; on Day 15
colorectal cancer = experiment: Combination therapy in a colorectal cancer patient, 28-day cycle schedule; type: in vivo, human; conditions: 28-day cycle: FTD/TPI two times 5-days' administration with 2-days' rest then 2 weeks rest, CPT-11 once in 2 weeks, side effects appeared strongly
Method: In view of this situation, when a combination therapy comprising repeating a 28-day cycle consisting of two times of 5-days' administration with 2-days' rest of an FTD/TPI combination drug, followed by rest of the drug administration for 2 weeks, and an administration of CPT-11 once in 2 weeks was performed in a colorectal cancer patient on the basis of an administration schedule in which effects of each drug have previously been reported as in Reference Example described later, only about 30% of the predetermined amount of CPT-11 could be administered because side effects appeared strongly. Since antitumor effect is generally proportional to the total dose, the present inventors have studied on administration schedule which can suppress the occurrence of side effects and in which a predetermined amount can be administered.

CCc1c2c(nc3ccc(OC(=O)N4CCC(N5CCCCC5)CC4)cc13)-c1cc3c(c(=O)n1C2)COC(=O)[C@]3(O)CC [CPT-11, irinotecan hydrochloride hydrate]
dose at which a death case was reported [1]: 111 mg/kg/day
ILS (increase in life span) ([2]; CPT-11 80 mg/kg/day): 54.0%
Survival time (day) Mean ± SD ([2]; CPT-11 80 mg/kg/day): 61.6 ± 12.6 days
ILS (increase in life span) ([2]; CPT-11 100 mg/kg/day): 81.3%
Survival time (day) Mean ± SD ([2]; CPT-11 100 mg/kg/day): 72.5 ± 12.3 days
TGI (tumor growth inhibition rate) [3]: 78.2%
share of the predetermined amount of CPT-11 that could be administered (colorectal cancer): about 30%

Reference: US9616082B2, “Antitumor agent including irinotecan hydrochloride hydrate” (TAIHO PHARMACEUTICAL CO., LTD., priority 2013, dated 2017)
